Here are results for 88 compounds from a melting point compilation (Tetko et al.; mined from patent text by program, amines drawn as free bases though some values may be those of a salt).

`CN(c1ccccc1)c1nc(Cl)c([N+](=O)[O-])s1`: the melting point was 136 to 137 °C. The figure for `CC(=O)Nc1ccc2nc(CN3CCCCC3)ccc2c1` is 182 to 184 °C; for `O=C(O)CC(CCCc1ccc(O)cc1)CC(=O)O` it is 107 to 108 °C; for `CCCCCCCCCCCCc1c(C(=O)OCC)[nH]c(C)c1C` it is 70 to 71 °C.

In turn, `CNC(=O)CONC(=O)c1cc(Br)cc(Br)c1NC(=O)c1cc(Br)nn1-c1ncccc1Cl` registered a melting point of 220 to 221 °C. The figure for `CC(C)(C)NS(=O)(=O)c1ccccc1C=C1CCOC1=O` is 173 to 176 °C; for `O=C(O)Cc1ccc(OCc2ccc3oc([N+](=O)[O-])c(-c4ccccc4)c3c2)cc1` it is 179 to 180 °C; for `CCOC(=O)c1ccc(-c2ccc(OCCCCCCCCCCCCBr)cc2)cc1` it is 88.6 to 90.5 °C. The figure for `CCOC(=O)C(=CNc1nonc1C)C(=O)c1cc(F)c(F)cc1F` is 104 to 107 °C; for `C=CCc1c2c(cc3c(=O)cc(C(=O)O)oc13)CCCC2` it is 235 to 237 °C.

For the compound `CCSC1=N[C@@H](c2ccccc2)[C@H](c2ccccc2)N1` (relative stereo), the melting point fell in the range of 130 to 132 °C.

In turn, `CCCC(C(=O)N(C)C)n1cc(C)c(-c2ccco2)n1` (stereo not drawn) yielded a melting point of 107 to 109 °C. The result for `OC1CSC(Oc2cccn3ncnc23)C(O)C1O` (stereo not drawn) reads 155 °C; that for `CC(C)(C)CC(=O)Nc1cc(NC(=O)C(C)(C)C)cc(NC(=O)C(C)(C)C)c1`, 368 °C.

On to `COc1cc(COc2nn(-c3ccccc3)cc2CCC(=O)O)ccc1OCc1nc(-c2ccco2)oc1C`, for which the melting point is 161 to 162 °C. The result for `COC(=O)C1=C(C)Nc2nccn2C1c1cccc(C(C)=O)c1` (stereo not drawn) reads 227 to 229 °C.

In the case of `O=P(Oc1cccc(OP(=O)(c2ccccc2)c2ccccc2)c1)(c1ccccc1)c1ccccc1`, the melting point came to 130 °C.

As for `CCCCCC(O)C=CC1C(O)CC(O)C1CCCCCCC(=O)O` (stereo not drawn), the melting point was in the range of 98 to 100 °C. The figure for `Nc1nc(Cl)c(-c2ccc(Cl)cc2Cl)c(Cl)n1` is 211 to 213 °C; for `CCCc1nc2c(N)nc3cc(-c4ccccc4)ccc3c2n1CC(C)(C)NS(C)(=O)=O` it is 135 to 141 °C. The figure for `O=C(Cc1ccccc1)NCC(O)c1ccccc1` (stereo not drawn) is 97 to 99 °C; for `CCCCCCCC1=CCC(c2cc(F)c(F)c(F)c2)C=C1` (stereo not drawn) it is 14 °C; for `CC(C)n1c(=O)nc(-c2ccccc2)c2ccc(CO)cc21` it is 223 to 225 °C.

In the case of `CCC(O)(CC)c1cc(Cl)ccc1O`, the melting point is 76 °C.

In turn, `CC(C)Oc1ccnc2[nH]cc(-c3ccnc(N)n3)c12` yielded a melting point of over 210 °C. The figure for `CC(=O)OCC1(c2ccccc2)CCC(=O)CC1` is 74 to 79 °C; for `CCNC(=O)c1nc2cc(NC(=O)c3c(C(=O)N4CCC4)cnn3C)ccn2n1` it is 217 to 229 °C. The figure for `CN1C(=O)CN=C(c2ccccc2F)c2c1ccc(NC(=O)Nc1ccc(Cl)cc1)c2Cl` is 285 °C.

The compound `O=C(Nc1ccc(-n2nc(C(F)(F)F)cc2C(F)(F)F)cc1)c1ccc([N+](=O)[O-])cc1` had a melting point of 185 to 188 °C. As for `COc1ccc(-c2ccc3c(c2)c2ccc(C=Cc4ccccc4)nc2n3S(=O)(=O)c2ccccc2)cc1`, the melting point lay within 193 to 195 °C. On to `COC(=O)c1cn2c(n1)COc1ccc([N+](=O)[O-])cc1-2`, for which the melting point is 270 to 272 °C. The figure for `CC(C)Nc1cccnc1N1CCN(C(=O)c2ccc(C(=O)N3CCSCC3)cc2)CC1` is 163 to 164 °C; for `CN(C)[C@@H]1CN2C(=O)N(c3cc(Cl)cc(Cl)c3)C(=O)[C@@]2(Cc2ccc(Br)cc2)C1` it is 54 °C; for `CC(C)(C)OC(=O)N1CCN(C(=O)c2ccccc2)CC1` it is 106 °C.

As for `Nc1c(Nc2ccon2)cnc2c1COCC2`, the melting point lay in the range of 209 to 211 °C.

With `c1ccc2c(c1)OCCN1CCOCCN(CCOCC1)CCO2`, the melting point was 119 to 120 °C.

`COC1(c2cc(F)cc(OCc3ccc4c(c3)C(=O)N(C)S4(=O)=O)c2)CCOCC1` had a melting point of 155 to 156 °C. The result for `O=C(O)CNC[C@H]1O[C@H](c2ccccc2Cl)c2cc(Cl)ccc2N(Cc2ccccc2)C1=O` (relative stereo) reads 224 to 226 °C; that for `Cc1ccc(NC(=O)c2ccc(CN(C)C)c(C(F)(F)F)c2)cc1-c1ccc2cnncc2c1`, 240 to 241 °C; that for `C=CCOC(=O)c1c(C)nc2c(cnn2Cc2ccccc2)c1N`, 108 °C.

`CCOP(=O)(OCC)Oc1c(C2CCN(CCCCNC(=O)c3ccc(-c4ccc(C#N)cc4)cc3)CC2)ccc2c1CCCC2` gave a melting point of 90 °C.

`FC(F)(F)c1ccc(Cl)cn1` had a melting point of 36 to 37 °C.

Consider `COC(=O)CN(C1(C(=O)C2CCCCC2)C=C(Cl)C=CC1)S(=O)(=O)c1ccc(OC)cc1` (stereo not drawn), for which the melting point was 115 to 116 °C. In turn, `CC(C)(C)c1coc2c(-c3ccc(F)cc3)c(-c3ccc(S(C)(=O)=O)cc3)nn12` showed a melting point of 181 to 182 °C. As for `Cc1cc(NS(=O)(=O)c2ccc(F)cc2)cc(C)c1S(=O)(=O)C[N+](=O)[O-]`, the melting point was in the range of 152 to 154 °C. In turn, `COC1=C(OC)C(=O)C(N=[N+]=[N-])=C(C)C1=O` displayed a melting point of 48 to 50 °C. The figure for `O=C(O)COC(=O)c1c(Cl)cccc1Cl` is 180 to 182 °C; for `Cc1cc(Br)cnc1CCCCc1cc(N)cc2c1C(N)=NS2(=O)=O` it is 276 to 279 °C. In turn, `Cc1ccccc1-c1cc(F)c2c(c1)CC(CN)O2` (stereo not drawn) registered a melting point of over 250 °C.

With `O=C1CCNc2nc(Br)ccc21`, the melting point is 196 to 197 °C.

In the case of `NC(=O)c1nnn(Cc2cc(Cl)c(C(=O)c3ccc(Cl)cc3)c(Cl)c2)c1N`, the melting point fell in the range of 198 to 200 °C. The figure for `CC(=O)Oc1cccc2c1C13CCN(C)C(C2)C1CCC(=O)C3` (single isomer, unassigned; (-)) is 96 to 97 °C; for `CCOc1ccc(C(=O)Nc2ccccc2)cc1Nc1cccc(C(F)(F)F)c1` it is 184 to 185 °C. The result for `CN(O)C(=O)NCc1cccs1` reads 106 to 107 °C; that for `Nc1sc2c(c1C(=O)c1ccc3ccccc3c1)CCN(Cc1ccc(Cl)cc1)C2`, 105 to 108 °C; that for `CC(=O)NC[C@H]1CN(c2ccc(C3CCN(C(=O)O)CC3)c(F)c2)C(=O)O1`, 144 to 146 °C. The figure for `COC(=O)C=C(C)c1ccc(CCNCC(O)c2ccccc2)cc1` (stereo not drawn) is 120 to 125 °C; for `Cc1ncc2c(c1-c1nnn[nH]1)COc1ccccc1C2=O` it is 180 to 182 °C; for `Cc1cc(OC2CCS(=O)(=O)CC2)cc(C)c1-c1cccc(COc2ccc(C3CC3C(=O)O)cc2)c1` (stereo not drawn) it is 161 to 162 °C. As for `COc1ccc2cc([C@H](C)C(=O)OCCOc3ccc(OCCO[N+](=O)[O-])cc3)ccc2c1`, the melting point lay within 67 to 69 °C.

`COC(=O)c1ccccc1C=C1C(=O)Nc2ccc(S(=O)(=O)NC(C)C)cc21` showed a melting point of 271 to 273 °C.

For the compound `CC(C)(C)OC(=O)NC1(CCO)CC1`, the melting point is 93 to 95 °C. The figure for `O=C(NNS(=O)(=O)c1ccccc1)c1ccc2c(c1)CCO2` is 181 to 183 °C; for `C#CCNC(=O)c1ncn2c1[C@@H]1CCN1C(=O)c1sccc1-2` it is 233 to 235 °C; for `O=[N+]([O-])c1ccc(Sc2cc(Br)nc(Br)c2)cc1` it is 166 to 168 °C. In the case of `CCOCc1nc2c(N)nc3ccccc3c2n1CCCCS(=O)(=O)NCc1ccc(OC)cc1`, the melting point was determined as 101 °C. The result for `Cc1ccc(C(=O)Nc2ccc(CN3CCOCC3)c(C(F)(F)F)c2)cc1Br` reads 147 to 151 °C; that for `Cc1oc(-c2cccs2)nc1COc1ccc(CON=C(CCCCC(=O)O)c2ccccc2)cc1`, 101 to 102 °C.

The compound `COc1ccccc1-c1c(NC(=O)OCc2ccccc2)oc(=O)c2ccccc12` displayed a melting point of 144 to 146 °C. Consider `Cc1ccc(-c2c(C)c3cc(O)ccc3n2Cc2ccc(OCCN3CCCCC3)cc2)cc1`, for which the melting point fell in the range of 162 to 164 °C.

In turn, `NNc1ncc(-c2cccc(C(F)(F)F)c2)nn1` came in with a melting point of 229 to 232 °C. The figure for `FC(F)(F)C1(c2cc(Cl)cc(Cl)c2)CC(c2ccc(Br)nc2)=NO1` (stereo not drawn) is 147 to 148 °C; for `Nc1nc2c(ncn2OC(CO)CCOCP(=O)(O)O)c(=O)[nH]1` (stereo not drawn) it is 188 to 192 °C; for `N#CC(CC1CCCCC1)c1n[nH]c2cc(O)ccc12` (stereo not drawn) it is 175 °C. The result for `CCCCNS(=O)(=O)CC(O)C(O)C(CC1CCCCC1)NC(=O)CC(CC)c1c[nH]cn1` (stereo not drawn) reads 60 to 90 °C. Compound `COC(=O)CCc1cc2nc(C(F)(F)F)ccc2n1S(=O)(=O)c1ccccc1` showed a melting point of 119 °C. The figure for `COc1cc(C(C)NC(=O)OCC2c3ccccc3-c3ccccc32)c([N+](=O)[O-])cc1OCCCC(=O)O` (stereo not drawn) is 200 to 201 °C. `CCCCCCCCCCCCCCOc1cc(OC)cc(N)c1OCOC` returned a melting point of 66 to 67 °C. The figure for `O=C(Nc1ccc(Cl)cn1)c1cc(F)ccc1NCC1CCNCC1` is 230 to 233 °C. The result for `CCOc1cc(OCC)c2c(C)c(CCCl)c(=O)oc2c1` reads 123 to 126 °C; that for `NS(=O)(=O)c1nc(Cl)cs1`, 137 to 142 °C; that for `CCCCN1CCC2(CC1)OC(=O)c1ccccc12`, 60 to 62 °C. `COc1ccc(C(=O)C(=O)c2cccc(-c3ccc(S(C)(=O)=O)cc3)c2-c2ccccc2)cc1Cl` registered a melting point of 163 to 166 °C. `COc1ccc2c(OCCN3CCOCC3)c(-c3ccccc3)c(=O)oc2c1`: the melting point fell in the range of 95 to 96 °C. The result for `COc1ccc(C=CC(=O)NCCc2ccc(OC(C)(C)C(=O)O)cc2)cc1` reads 158 to 159 °C; that for `Oc1ccc(Cl)nc1Cl`, 136 to 138 °C. Compound `CC(=O)N1CCc2c(N)cccc2C1` gave a melting point of 107 to 108 °C. Consider `O=C1NC(=O)C2(CCCN3CCN(c4ccc(Cl)cc4)CC3)C=CC=CC12` (stereo not drawn), for which the melting point came out at 120 °C.

As a reminder, the melting point is the temperature, or range, at which the solid turns liquid.
